Key:
human recombinant HDAC6 = target: T1, human recombinant HDAC6 (Homo sapiens, UniProt Q9UBN7); assay: HDAC6 enzyme activity inhibition (HDAC Fluorimetric Drug Discovery Kit); type: biochemical; conditions: for HDAC6 selectivity (fold): HDAC1 IC50 / HDAC6 IC50; for IC50: human recombinant HDAC6, IC50 calculated with GraphPad Prism
T1 construct: purchased Calbiochem Inc. 382180
T1 sequence (Q9UBN7 1-1215): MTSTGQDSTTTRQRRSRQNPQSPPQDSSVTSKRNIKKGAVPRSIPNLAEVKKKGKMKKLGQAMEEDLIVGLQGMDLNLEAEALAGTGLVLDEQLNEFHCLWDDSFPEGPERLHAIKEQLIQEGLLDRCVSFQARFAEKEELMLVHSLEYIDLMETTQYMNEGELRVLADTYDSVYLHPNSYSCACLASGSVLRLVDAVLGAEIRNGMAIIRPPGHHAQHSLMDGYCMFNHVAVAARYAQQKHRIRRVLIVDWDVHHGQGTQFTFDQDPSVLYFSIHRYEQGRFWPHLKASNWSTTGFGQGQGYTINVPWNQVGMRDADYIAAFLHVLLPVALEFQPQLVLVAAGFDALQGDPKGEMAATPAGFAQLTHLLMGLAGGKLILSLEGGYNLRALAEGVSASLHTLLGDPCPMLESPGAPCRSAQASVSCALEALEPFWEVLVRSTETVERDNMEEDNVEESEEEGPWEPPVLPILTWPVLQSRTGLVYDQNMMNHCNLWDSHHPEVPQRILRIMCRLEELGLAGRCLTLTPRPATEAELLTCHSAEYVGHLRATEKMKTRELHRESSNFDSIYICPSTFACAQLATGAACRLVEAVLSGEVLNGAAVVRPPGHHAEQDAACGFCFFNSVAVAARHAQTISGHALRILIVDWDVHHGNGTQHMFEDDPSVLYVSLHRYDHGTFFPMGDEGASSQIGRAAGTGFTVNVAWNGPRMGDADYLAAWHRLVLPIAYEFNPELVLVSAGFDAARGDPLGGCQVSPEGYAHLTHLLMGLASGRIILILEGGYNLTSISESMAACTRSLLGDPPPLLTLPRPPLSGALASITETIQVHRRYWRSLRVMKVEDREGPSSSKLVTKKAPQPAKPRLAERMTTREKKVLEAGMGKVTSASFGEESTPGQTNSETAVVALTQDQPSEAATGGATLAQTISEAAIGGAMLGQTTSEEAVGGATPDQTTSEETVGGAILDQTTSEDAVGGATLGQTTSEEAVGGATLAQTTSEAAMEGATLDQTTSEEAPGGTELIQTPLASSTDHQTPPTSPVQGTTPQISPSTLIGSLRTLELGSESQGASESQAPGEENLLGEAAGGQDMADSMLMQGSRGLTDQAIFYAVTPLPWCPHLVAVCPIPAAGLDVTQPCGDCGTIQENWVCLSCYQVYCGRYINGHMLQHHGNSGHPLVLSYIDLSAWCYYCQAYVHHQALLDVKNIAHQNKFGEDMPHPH
Protocol: An experiment was conducted to identify the selectivity of the compound represented by formula I of the present invention to HDAC6 through an experiment on HDAC1 and HDAC6 enzyme activity inhibition.
A 5-fold dilution of the compound was divided into a 96-well plate, after which […] of the enzyme and 10 μM of the substrate were inserted into each well and subjected to reaction at 30° C. for 60 minutes, such that Fluor de Lys® Developer II (BML-KI176) was inserted thereinto and subjected to reaction for 30 minutes and finished.

human recombinant HDAC1 = target: T2, human recombinant HDAC1 (Homo sapiens, UniProt Q13547); assay: HDAC1 enzyme activity inhibition (HDAC Fluorimetric Drug Discovery Kit); type: biochemical; conditions: human recombinant HDAC1; IC50 calculated with GraphPad Prism; read-out: HDAC1
T2 construct: purchased Enzo Life Science, Inc. BML-SE456
T2 sequence (Q13547 whole entry): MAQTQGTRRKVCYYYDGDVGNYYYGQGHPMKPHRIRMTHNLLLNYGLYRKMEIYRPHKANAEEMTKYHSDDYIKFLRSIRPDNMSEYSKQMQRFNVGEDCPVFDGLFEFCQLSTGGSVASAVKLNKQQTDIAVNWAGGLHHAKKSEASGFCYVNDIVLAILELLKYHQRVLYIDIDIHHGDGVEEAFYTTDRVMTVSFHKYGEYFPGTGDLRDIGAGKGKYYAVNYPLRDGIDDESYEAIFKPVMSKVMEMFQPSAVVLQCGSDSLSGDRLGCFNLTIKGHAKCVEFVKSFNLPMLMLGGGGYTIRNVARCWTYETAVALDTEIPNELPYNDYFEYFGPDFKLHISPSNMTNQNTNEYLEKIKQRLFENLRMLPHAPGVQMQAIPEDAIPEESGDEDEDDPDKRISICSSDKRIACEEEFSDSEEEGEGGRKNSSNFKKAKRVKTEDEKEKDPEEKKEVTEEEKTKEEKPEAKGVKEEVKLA
Procedure, shortened: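 Five-fold compound dilutions incubated with […] recombinant enzyme and 10 μM fluorogenic Fluor de Lys substrate, 60 min at 30° C. Fluor de Lys Developer II then added for 30 min to generate the fluorescent read-out.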

Row | Structure (SMILES) | HDAC6 selectivity (fold) (human recombinant HDAC6) | IC50 (human recombinant HDAC6) [nM] | IC50 (human recombinant HDAC1) [nM]
1 | FC(F)c1nnc(-c2ccc(Cn3cc(C4=CCCCC4)nn3)nc2)o1 [Compound 3879, 2-(6-((4-(cyclohex-1-ene-1-yl)-1H-1,2,3-triazol-1-yl)methyl)pyridin-3-yl)-5-(difluoromethyl)-1,3,4-oxadiazole] | 773 | 64.6 | > 50000
2 | FC(F)c1nnc(-c2ccc(Cn3cc(C4CCCCC4)nn3)nc2)o1 [Compound 3880, 2-(6-((4-cyclohexyl-1H-1,2,3-triazol-1-yl)methyl)pyridin-3-yl)-5-(difluoromethyl)-1,3,4-oxadiazole] | 627 | 79.7 | > 50000
3 | FC(F)c1nnc(-c2ccc(Cn3cc(-c4ccc(Cl)nc4)nn3)nc2)o1 [Compound 3882, 2-(6-((4-(6-chloropyridin-3-yl)-1H-1,2,3-triazol-1-yl)methyl)pyridin-3-yl)-5-(difluoromethyl)-1,3,4-oxadiazole] | 988 | 50.6 | > 50000
4 | Cc1cncc(-c2cn(Cc3ccc(-c4nnc(C(F)F)o4)cn3)nn2)c1 [Compound 3884, 2-(difluoromethyl)-5-(6-((4-(5-methylpyridin-3-yl)-1H-1,2,3-triazol-1-yl)methyl)pyridin-3-yl)-1,3,4-oxadiazole] | 1329 | 37.6 | > 50000
5 | O=C(c1cccc(-c2cn(Cc3ccc(-c4nnc(C(F)F)o4)cn3)nn2)c1)N1CCOCC1 [Compound 3885, (3-(1-((5-(5-(difluoromethyl)-1,3,4-oxadiazol-2-yl)pyridin-2-yl)methyl)-1H-1,2,3-triazol-4-yl)phenyl)(morpholino)methanone] | 920 | 54.3 | > 50000
6 | CN1CCN(C(=O)c2cccc(-c3cn(Cc4ccc(-c5nnc(C(F)F)o5)cn4)nn3)c2)CC1 [Compound 3887, (3-(1-((5-(5-(difluoromethyl)-1,3,4-oxadiazol-2-yl)pyridin-2-yl)methyl)-1H-1,2,3-triazol-4-yl)phenyl)(4-methylpiperazin-1-yl)methanone] | 875 | 57.1 | > 50000
7 | CN(C(=O)C(C)(C)C)c1cccc(-c2cn(Cc3ccc(-c4nnc(C(F)F)o4)cn3)nn2)c1 [Compound 3889, N-(3-(1-((5-(5-(difluoromethyl)-1,3,4-oxadiazol-2-yl)pyridin-2-yl)methyl)-1H-1,2,3-triazol-4-yl)phenyl)-N-methylpivalamide] | 1210 | 41.3 | > 50000
8 | CCOC(=O)N(C)c1cccc(-c2cn(Cc3ccc(-c4nnc(C(F)F)o4)cn3)nn2)c1 [Compound 3890] | 1319 | 37.9 | > 50000
9 | COC(=O)N1CCC(c2cn(Cc3ccc(-c4nnc(C(F)F)o4)cn3)nn2)CC1 [Compound 3891, Methyl4-(1-((5-(5-(difluoromethyl)-1,3,4-oxadiazol-2-yl)pyridin-2-yl)methyl)-1H-1,2,3-triazol-4-yl)piperidin-1-carboxylate] | 287 | 174 | > 50000
10 | CCOC(=O)N1CCC(c2cn(Cc3ccc(-c4nnc(C(F)F)o4)cn3)nn2)CC1 [Compound 3892, Ethyl4-(1-((5-(5-(difluoromethyl)-1,3,4-oxadiazol-2-yl)pyridin-2-yl)methyl)-1H-1,2,3-triazol-4-yl)piperidin-1-carboxylate] | 357 | 140 | > 50000
11 | CC(C)(C)C(=O)N1CCC(c2cn(Cc3ccc(-c4nnc(C(F)F)o4)cn3)nn2)CC1 [Compound 3893, 1-(4-(1-((5-(5-(difluoromethyl)-1,3,4-oxadiazol-2-yl)pyridin-2-yl)methyl)-1H-1,2,3-triazol-4-yl)piperidin-1-yl)-2,2-dimethylpropan-1-one] | 326 | 153 | > 50000
12 | CC(C)(F)C(=O)N1CCC(c2cn(Cc3ccc(-c4nnc(C(F)F)o4)cn3)nn2)CC1 [Compound 3894] | 498 | 100 | > 50000
13 | CC(C)(F)CN1CCC(c2cn(Cc3ccc(-c4nnc(C(F)F)o4)cn3)nn2)CC1 [Compound 3895, 2-(difluoromethyl)-5-(6-((4-(1-(2-fluoro-2-methylpropyl)piperidin-4-yl)-1H-1,2,3-triazol-1-yl)methyl)pyridin-3-yl)-1,3,4-oxadiazole] | 171 | 293 | > 50000
14 | CCC(F)(CC)CN1CCC(c2cn(Cc3ccc(-c4nnc(C(F)F)o4)cn3)nn2)CC1 [Compound 3896, 2-(difluoromethyl)-5-(6-((4-(1-(2-ethyl-2-fluorobutyl)piperidin-4-yl)-1H-1,2,3-triazol-1-yl)methyl)pyridin-3-yl)-1,3,4-oxadiazole] | 187 | 267 | > 50000
15 | CN(C)Cc1cccc(-c2cn(Cc3ccc(-c4nnc(C(F)F)o4)cn3)nn2)c1 [Compound 3915, 1-(3-(1-((5-(5-(difluoromethyl)-1,3,4-oxadiazol-2-yl)pyridin-2-yl)methyl)-1H-1,2,3-triazol-4-yl)phenyl)-N,N-dimethylmethanamine] | 1308 | 38.2 | > 50000
16 | CN1CCN(Cc2cccc(-c3cn(Cc4ccc(-c5nnc(C(F)F)o5)cn4)nn3)c2)CC1 [Compound 3917, 2-(difluoromethyl)-5-(6-((4-(3-((4-methylpiperazin-1-yl)methyl)phenyl)-1H-1,2,3-triazol-1-yl)methyl)pyridin-3-yl)-1,3,4-oxadiazole] | 1524 | 32.8 | > 50000
17 | CN(C)CCN(C)Cc1cccc(-c2cn(Cc3ccc(-c4nnc(C(F)F)o4)cn3)nn2)c1 [Compound 3918, N1-(3-(1-((5-(5-(difluoromethyl)-1,3,4-oxadiazol-2-yl)pyridin-2-yl)methyl)-1H-1,2,3-triazol-4-yl)benzyl)-N1,N2,N2-trimethylethane-1,2-diamine] | 1190 | 42 | > 50000
18 | CNCc1cccc(-c2cn(Cc3ccc(-c4nnc(C(F)F)o4)cn3)nn2)c1 [Compound 3919, 1-(3-(1-((5-(5-(difluoromethyl)-1,3,4-oxadiazol-2-yl)pyridin-2-yl)methyl)-1H-1,2,3-triazol-4-yl)phenyl)-N-methylmethanamine] | 1358 | 36.8 | > 50000
19 | CC(C)(C)OC(=O)N1CC(c2cn(Cc3ccc(-c4nnc(C(F)F)o4)cn3)nn2)C1 [Compound 3926, Tert-butyl 3-(1-((5-(5-(difluoromethyl)-1,3,4-oxadiazol-2-yl)pyridin-2-yl)methyl)-1H-1,2,3-triazol-4-yl)azetidin-1-carboxylate] | 308 | 162 | > 50000
20 | Cc1nc(-c2ccccc2)cn1Cc1ccc(-c2nnc(C(F)F)o2)cn1 [Compound 3945, 2-(difluoromethyl)-5-(6-((2-methyl-4-phenyl-1H-imidazol-1-yl)methyl)pyridin-3-yl)-1,3,4-oxadiazole] | 258 | 193 | > 50000
21 | FC(F)c1nnc(-c2ccc(Cn3cnc(Br)c3)nc2)o1 [Compound 3949, 2-(6-((4-bromo-1H-imidazol-1-yl)methyl)pyridin-3-yl)-5-(difluoromethyl)-1,3,4-oxadiazole] | 445 | 112 | > 50000

Reference: patent publication US20230257372A1 (CHONG KUN DANG PHARMACEUTICAL CORP., priority 2020, published 2023)
